Several values for one entry are separate records, joined by “and”; a condition that tells them apart may be missing. Equal entries are not always repeated. Where two headings read alike, the source gives them in different places.

A short description of series [1]: TA activity after drying in CL-mimic conditions (RP-HPLC). The class given is physicochemical. To be noted: droplets dried at 4 °C under vacuum (CL-mimic), reconstituted in PBS, RP-HPLC C18, UV, mean ± SD, n = 15. The method, then:
TA activity was assessed via reverse-phase high-performance liquid chromatography (RP-HPLC) under CL-mimic conditions, in which TA undergoes a drying process from droplets of matric polymer with TA. TA polymer solutions were dispensed as droplets on a polyurethane film (SLA, Gumi, Korea) using a robotic dispenser (ML-5000X; Musashi Engineering, Inc., Tokyo, Japan) and dried at 4 °C under vacuum to mimic the conditions of the CL. Dried droplets were then dissolved in phosphate-buffered saline (PBS; Life Technologies, Carlsbad, CA, USA) for reconstitution and analyzed via RP-HPLC using a separation module (Waters e2695; Waters Corp., Milford, MA, USA) and a dual λ absorbance detector (Waters 2487′ Waters Corp., Milford, MA, USA). A C18 column (COSMOSIL; 5 μm, 150 × 4.6 mm) was used for HPLC. Mobile phase A was prepared as 10% acetonitrile (Sigma-Aldrich, St. Louis, MO, USA) and 90% 0.2 M sodium sulfate (Sigma-Aldrich, St. Louis, MO, USA) and phase B was prepared as 50% acetonitrile and 50% of 0.2 M sodium sulfate with a flow rate of 1.3 mL/min and detection wavelength of […].

A short description of series [2]: In vivo pharmacokinetic analysis after TA delivery. Also on record: species or system Sprague Dawley rats. Particulars: SD rats; for half-life: male, Sprague Dawley, rat. As for the experimental part: Six-week-old male Sprague Dawley rats (SD rats) were purchased from Young Bio Inc. (Seongnam, Korea) and allowed seven days for acclimation. Three groups of SD rats were used for the pharmacokinetic study. All the dorsal regions of the SD rats were shaved for application of the TA-DMN patches. Group 1 was administered a subcutaneous injection of a formulation containing 60.6 μg of TA into the central part of the back using a 27 G hypodermic needle (Becton Dickinson, Franklin Lakes, NJ, USA), and served as the positive control. Group 2 received one TA-DMN patch containing 61.4 ± 1.3 µg of TA. Group 3 received two TA-DMN patches containing 122.8 ± 2.6 µg of TA. A home-made shooting device was used to apply the TA-DMN patches on the backs of the SD rats, and a dressing (Tegaderm; 3M Health Care, St. Paul, MN, USA) was used to cover the patches. In addition, a self-adherent bandage wrap (Coban; 3M Health Care, St. Paul, MN, USA) was used to secure the patches.
At 0, 0.25, 0.5, 0.75, 1, 2, 3.5, 4, 5, 6, and 24 h after subcutaneous administration of TA in group 1, 100 μL of blood was taken into a Microvette (SARSTEDT; Nümbrecht, Germany) from the saphenous vein, which was exposed after a minor incision of the tail by a surgical blade. Blood samples were collected in the same manner at 0, 0.5, 1, 2, 3.5, 4, 5, 6, and 24 h after TA-DMN patch application in group 2, and at 0, 0.5, 1, 1.5, 3, 4, 5, 6, and 24 h after TA-DMN patch application in group 3. The collected blood was left at room temperature for 30 min and centrifuged using a microcentrifuge (Hanil, Dajeon, Korea) at 1000× g for 10 min to separate the plasma. All separated plasma samples were transferred to 1.5-mL Eppendorf tubes and stored at −70 °C. TA concentrations in rat plasma were determined via enzyme-linked immunosorbent assay (ELISA) using a TA pharmacokinetics ELISA kit (SB-07-043; Somru Bioscience, Charlottetown, PE, Canada) and a microplate reader (Perkin Elmer, Waltham, MA, USA). Based on the determined TA concentrations in rat plasma, the areas under the concentration curve (AUC) were computed using the trapezoid area calculation method, and BA was evaluated to analyze the pharmacokinetic profiles.

Take `CC[C@H](C)[C@H](NC(=O)[C@H](CCC(=O)O)NC(=O)[C@H](CO)NC(=O)[C@@H](NC(=O)[C@@H](N)CO)C(C)C)C(=O)N[C@@H](CCC(N)=O)C(=O)N[C@@H](CC(C)C)C(=O)N[C@@H](CCSC)C(=O)N[C@@H](Cc1cnc[nH]1)C(=O)N[C@@H](CC(N)=O)C(=O)N[C@@H](CC(C)C)C(=O)NCC(=O)N[C@@H](CCCCN)C(=O)N[C@@H](Cc1cnc[nH]1)C(=O)N[C@@H](CC(C)C)C(=O)N[C@@H](CC(N)=O)C(=O)N[C@@H](CO)C(=O)N[C@@H](CCSC)C(=O)N[C@@H](CCC(=O)O)C(=O)N[C@@H](CCCN=C(N)N)C(=O)N[C@H](C(=O)N[C@@H](CCC(=O)O)C(=O)N[C@@H](Cc1c[nH]c2ccccc12)C(=O)N[C@@H](CC(C)C)C(=O)N[C@@H](CCCN=C(N)N)C(=O)N[C@@H](CCCCN)C(=O)N[C@@H](CCCCN)C(=O)N[C@@H](CC(C)C)C(=O)N[C@@H](CCC(N)=O)C(=O)N[C@@H](CC(=O)O)C(=O)N[C@H](C(=O)N[C@@H](Cc1cnc[nH]1)C(=O)N[C@@H](CC(N)=O)C(=O)N[C@@H](Cc1ccccc1)C(=O)O)C(C)C)C(C)C` [TA, teriparatide acetate]: the “TA activity after drying” value in series [1] (TA polymer solution (HA) with 10% trehalose) was determined as 75.4 ± 8.3%; in series [1] (TA polymer solution (HA) without trehalose), 59.0 ± 3.6%. For the same molecule, in series [2] (Group 1: subcutaneous injection, 60.6 μg TA, plasma ELISA, n = 3), the Tmax turned out to be 18 min. Also, in series [2] (Group 1: subcutaneous injection, 60.6 μg TA, positive control (reference), n = 3), the BA was 100% and 100 ± 10.5%. The half-life is about 48 min in series [2] (plasma, after all three TA administration methods (SC, one patch, two patches), read-out: half-life t½ of TA in plasma (converted)) and 48 min in series [2] (sc, Group 1: subcutaneous injection, 60.6 μg TA, plasma ELISA, n = 3, read-out: t1/2 (converted)).

The values above are taken from article PMC9571303, “Development of Clinical Weekly-Dose Teriparatide Acetate Encapsulated Dissolving Microneedle Patch for Efficient Treatment of Osteoporosis” (Polymers, 2022).
